Measurements published in patent US9012420B2, “Aptamer for chymase, and use thereof” (Ribomic Inc., priority 2009, dated 2015).
One block for each molecule: values may come before it. Oligonucleotides are written 5' to 3', each unit as a sugar letter and its base; * is a phosphorothioate linkage, no mark a phosphodiester; rarer units and linkages stand in square brackets, end groups in braces. Plain capitals give the bases only. r = 2'-OH (RNA); f = 2'-fluoro

Target: T1, chymase (recombinant, manufactured by SIGMA) (Homo sapiens, UniProt P23946)
T1 construct: purchased SIGMA; host or cells: yeast
T1 sequence (P23946 22-247): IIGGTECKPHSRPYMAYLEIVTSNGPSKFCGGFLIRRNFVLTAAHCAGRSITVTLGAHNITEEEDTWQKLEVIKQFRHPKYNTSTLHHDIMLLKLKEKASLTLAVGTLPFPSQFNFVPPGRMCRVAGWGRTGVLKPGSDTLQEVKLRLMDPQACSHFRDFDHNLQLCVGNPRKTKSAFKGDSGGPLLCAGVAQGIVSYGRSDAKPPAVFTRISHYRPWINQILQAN
Test: Chymase inhibitory activity using synthetic substrate Suc-Ala-Ala-Pro-Phe-MCA
Format: biochemical
Outline: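 Human recombinant chymase (16.7 nM or 1.67 nM final) preincubated 5 min at 37° C., then added to nucleic acid (0.0027–2 μM serial dilutions) and 100 μM substrate in solution C. AMC fluorescence (ex 380/em 460 nm) followed 5 or 30 min at 37° C.; slope gives initial velocity, inhibition versus no-inhibitor control yields IC50.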

[1] = Table 5, same manner as Example 3, mean value of two measurements
[2] = Table 6, same manner as Example 3, mean value of two measurements
[3] = Table 7, same manner as Example 3, mean value of two measurements
[4] = Table 4, same manner as Example 3, mean value for 2 to 3 measurements
[5] = Table 3, substrate 100 μM, solution C, 37° C., mean value for 2 to 3 measurements

Molecule: GGGU(F)U(F)GAAGAU(F)AU(F)U(F)AAAGAAC(F)C(F)C(F) (GGGUUGAAGAUAUUAAAGAACCC; 2'-fluoro at CU, RNA at AG, backbone not given here) [SEQ ID NO: 58]
IC50 [1]: > 1000 nM | IC50 [2]: > 1000 nM | IC50 [3]: > 1000 nM

Molecule: 56 (GGGUUAGAUAGAGUUAAAAACCC; 2'-fluoro at CU, RNA at AG, backbone not given here) [compound 56]
IC50 [4]: 46 ± 31 nM | IC50 [2]: 27 ± 2 nM

Molecule: 65 (rGrGfCrArGrAfUrArGrArGfUfUrArArArGfCfC) [compound 65]
IC50 [1]: 56 ± 46 nM

Molecule: 53 (GGGUAACUAUGGUUAGAUAGAGUUAAAAACCAUAGAAGACCC; 2'-fluoro at CU, RNA at AG, backbone not given here) [compound 53]
IC50 [4]: 66 ± 24 nM

Molecule: 72 (GGGTTAGAUAGAGTUAAAAACCC; chemistry not given here) [compound 72]
IC50 [3]: 20 ± 2 nM

IC50 [5]: 100 to 200 nM
Molecule: CC(C)C[C@H](NC(=O)[C@@H](NC(=O)N[C@@H](Cc1ccccc1)C(=O)O)[C@@H]1CCN=C(N)N1)C(=O)N[C@H](C=O)Cc1ccccc1 [chymostatin, reference compound]

Molecule: 54 (UAACUAUGGUUAGAUAGAGUUAAAAACCAUAGAAGA; 2'-fluoro at CU, RNA at AG, backbone not given here) [compound 54]
IC50 [4]: 51 ± 33 nM

Molecule: 71 (GGGUUAGAUAGAGTUAAAAACCC; chemistry not given here) [compound 71]
IC50 [3]: 28 ± 5 nM

Molecule: 58 (GGGUUGAAGAUAUUAAAGAACCC; 2'-fluoro at CU, RNA at AG, backbone not given here) [compound 58]
IC50 [1]: > 1000 nM

Molecule: 70 (GGGTTAGAUAGAGUUAAAAACCC; chemistry not given here) [compound 70]
IC50 [3]: 27 ± 4 nM

Molecule: 55 (CUAUGGUUAGAUAGAGUUAAAAACCAUAG; 2'-fluoro at CU, RNA at AG, backbone not given here) [compound 55]
IC50 [4]: 55 ± 23 nM

B1: 14 (nucleic acid)
chain: rGrGrGrAfCrGrGfUrArGrGrArAfUfUfCfUfCrGfUfUfCfCfUrGrAfCrArGfCrAfUfUfUrGrArGrAfUrArGrAfUfUfUrArArAfCrArArAfCrGfCrAfCrAfUrArGrArArGrArGfCrGrGfCfCrGfC
modifications: aptamer
IC50 [5]: 61 ± 53 nM

B2: 4 (nucleic acid)
chain: rGrGrGrAfCrGrGfUrArGrGrArAfUfUfCrGfUfCfCrAfUfUfCfUrAfCrArGrAfUrArGrArGrAfUrArArArGfUrArGrArAfUfUfUrArAfCrArArArAfCrAfUrArGrArArGrArGfCrGrGfCfCrGfC
modifications: aptamer
IC50 [5]: 49 ± 3 nM

B3: 13 (nucleic acid)
chain: rGrGrGrAfCrGrGfUrArGrGrArAfUfUfCfCrGfCrArAfCfCrAfUfCfCfCrGfUrArAfCfUrAfUrGrGfUfUrArGrAfUrArGrArGfUfUrArArArArAfCfCrAfUrArGrArArGrArGfCrGrGfCfCrGfC
modifications: aptamer
IC50 [5]: 58 ± 24 nM
